US12286429B2, “5-oxo-1,2,3,5,8,8a-hexahydroindolizine-3-carboxamide derivatives useful as a factor XIa inhibitors” (Janssen Pharmaceutica NV, priority 2021, dated 2025)

These compounds were tested against Factor XIa (Homo sapiens, UniProt P03951) (assay: Factor XIa inhibition assay utilizing a fluorophore-quencher pair peptide substrate (FLINT)). Conditions: 11-point, 3-fold serial dilution, top 100 nM; 30 min preincubation; 15 μM 5Fam-KLTRAETV-K5Tamra substrate; kinetic reads over 30 min; read-out: FXIa Inhibition IC50.
Chain of Factor XIa (P03951 388-625 limits assumed): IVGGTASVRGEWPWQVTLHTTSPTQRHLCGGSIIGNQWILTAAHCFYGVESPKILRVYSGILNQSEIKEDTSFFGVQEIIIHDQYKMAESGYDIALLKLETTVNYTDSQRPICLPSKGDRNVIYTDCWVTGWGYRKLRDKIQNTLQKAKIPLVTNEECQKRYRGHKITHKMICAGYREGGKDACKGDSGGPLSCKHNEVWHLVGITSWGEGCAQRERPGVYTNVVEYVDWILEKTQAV
Chain of Factor XIa (P03951 19-387 partner limits assumed): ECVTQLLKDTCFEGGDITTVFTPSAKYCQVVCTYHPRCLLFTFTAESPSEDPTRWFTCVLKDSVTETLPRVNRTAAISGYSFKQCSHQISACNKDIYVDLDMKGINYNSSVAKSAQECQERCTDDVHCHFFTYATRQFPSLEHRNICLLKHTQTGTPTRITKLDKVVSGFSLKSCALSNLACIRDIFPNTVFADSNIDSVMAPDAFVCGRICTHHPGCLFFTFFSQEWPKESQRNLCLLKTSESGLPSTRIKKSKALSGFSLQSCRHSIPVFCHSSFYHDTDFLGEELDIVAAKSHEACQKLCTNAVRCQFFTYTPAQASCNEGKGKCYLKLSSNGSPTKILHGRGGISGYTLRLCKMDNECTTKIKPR
Assay type: biochemical
Text: Biological Example 1: Factor XIa Inhibition Assay Utilizing a Fluorophore-Quencher Pair Peptide Substrate
A fluorescence intensity (FLINT) based assay was used to monitor inhibition of Factor XIa. The peptide substrate, 5Fam-KLTRAETV-K5Tamra (purchased from New England Peptide) was chosen based on the FXI sequence. Conversion of zymogen FXI to its activated form, FXIa, occurs by proteolytic cleavage by […] at two sites, Arg146 and Arg180. The custom peptide used in this assay was based on the Arg146 cleavage site of FXI. The peptide substrate was designed with a fluorophore-quencher pair, where the fluorescence is quenched until FXIa cleaves the 8-mer peptide after the Arg residue.
The Factor XIa FLINT assay was used with the following 5Fam-KLTRAETV-K5Tamra assay buffer: 50 mM Tris, pH 7.5, 100 mM NaCl, 5 mM CaCl2, 0.1 mg/mL BSA, 0.03% CHAPS. Assay buffer was prepared by mixing all ingredients fresh. 5Fam-KLTRAETV-K5Tamra peptide substrate was first prepared at 10 mM in 100% DMSO, then diluted to 3 mM in 100% DMSO. Assay buffer was then added directly to the 3 mM stock of substrate to prepare the 30 μM 2× working concentration (15 μM final concentration). The 2× Factor XIa stock solution was prepared by diluting 6.562 μM stock in 1× assay buffer for a […].
Test compound(s) were run in an 11-point, 3-fold serial dilution with a final top compound concentration of 100 nM. Final DMSO in assay was 2%. FXIa was preincubated with compound for 30-minutes and then substrate was added to initiate the reaction. The assay was run with kinetic (KIN) reads at 5 min intervals over 30 minutes. […] More specifically, the assay was run as follows: • 100 nL of 0.01 mM test compound was dispensed into black 384-well non-binding Greiner BioOne 784900 plate for 0.1 μM final concentration, • 5 μL of 1× assay buffer was dispensed to column 24 (low control) and 5 μL 2× Factor XIa solution was dispensed to columns 1-23 (column 23 high control); • the plate was centrifuged with a “cover” plate at 500 rpm for 1 min • the plate was pre-incubated for 30 minutes at room temperature with plate covered; • 5 μL of 2×5Fam-KLTRAETV-K5Tamra peptide substrate was dispensed into the entire plate, columns 1-24; • the plate was centrifuged with a “cover” plate at 500 rpm for 1 min; • the plate was read monitoring fluorescence intensity on the BMG PHERAStar at room temperature, using fluorescence module 485 nm/520 nm.
Percent inhibition (IC50) curves were generated per compound tested, and data was analyzed using a 4-parameter logistic fit using GeneData Screener. The relative fluorescence unit (RFU) values were normalized to percent inhibition using the following equation: % inhibition=((HC−LC)−(compound−LC)/(HC−LC))*100
where LC—low control=mean signal of no Factor XIa or 100% inhibition of Factor XIa; HC—high control=mean signal of Factor XIa+5Fam-KLTRAETV-K5Tamra peptide substrate with DMSO only.
An 11-point dose response curve for the test compound(s) was generated using GENDATA to determine IC50 value based on the following equation: Y=Bottom+(Top−Bottom)/(1+10^((log IC50−X)*HillSlope))
where Y is the % inhibition in the presence of X inhibitor concentration, Top=high control=mean signal of Factor XIa+5Fam-KLTRAETV-K5Tamra peptide substrate with DMSO only; Bottom=low control—mean signal of no Factor XIa or 100% inhibition of Factor XIa; HillSlope—Hill coefficient; and IC50=concentration of compound with 50% inhibition in relation to top/high control.

Row | SMILES | IC50
1 | CO[C@H]1C[C@@H](C(=O)Nc2ccc3n[nH]cc3c2)N2C(=O)C=C(c3c(-n4cnnn4)ccc(Cl)c3F)CC12 (mixture of isomers) [ID No. 27, (1S,3S)-7-[3-Chloro-2-fluoro-6-(tetrazol-1-yl)phenyl]-N-(2H-indazol-5-yl)-1-methoxy-5-oxo-2,3,8,8a-tetrahydro-1H-indolizine-3-carboxamide] | 136 nM
2 | O=C(O)C1CCc2ccc(NC(=O)[C@@H]3CC[C@@H]4CC(c5c(-n6cc(C(F)(F)F)nn6)ccc(Cl)c5F)=CC(=O)N43)cc21 (some centres unmarked) [compound 104] | > 50 nM
3 | CO[C@H]1C[C@@H](C(=O)Nc2ccc3nn(C)cc3c2)N2C(=O)C=C(c3c(-n4cnnn4)ccc(Cl)c3F)CC12 (mixture of isomers) [compound 110] | > 100 nM
4 | O=C(Nc1ccc(-c2nc(=O)o[nH]2)cc1)[C@@H]1CCC2CC(c3c(OCC(F)(F)F)ccc(Cl)c3F)=CC(=O)N21 (mixture of isomers) [ID No. 40, (3S)-7-(3-Chloro-2-fluoro-6-(2,2,2-trifluoroethoxy)phenyl)-5-oxo-N-(4-(5-oxo-2,5-dihydro-1,2,4-oxadiazol-3-yl)phenyl)-1,2,3,5,8,8a-hexahydroindolizine-3-carboxamide] | 30.8 nM
5 | C[C@@H]1C[C@@H](C(=O)Nc2ccc3nccnc3c2)N2C(=O)C=C(c3c(-n4cnnn4)ccc(Cl)c3F)C[C@H]12 (single isomer, unassigned) [ID No. 81, (1R*,3S,8aR*)-7-[3-Chloro-2-fluoro-6-(tetrazol-1-yl)phenyl]-1-methyl-5-oxo-N-quinoxalin-6-yl-2,3,8,8a-tetrahydro-1H-indolizine-3-carboxamide] | 639 nM

Next, values leading:

Row | IC50 | SMILES
6 | > 50 nM | COCCNC(=O)c1ccc(NC(=O)[C@@H]2CCC3CC(c4c(-n5cnnn5)ccc(Cl)c4F)=CC(=O)N32)cc1F (single isomer, unassigned) [ID No. 94, (3S,8aS*)-7-(3-chloro-2-fluoro-6-(1H-tetrazol-1-yl)phenyl)-N-(3-fluoro-4-((2-methoxyethyl)carbamoyl)phenyl)-5-oxo-1,2,3,5,8,8a-hexahydroindolizine-3-carboxamide]
7 | 183 nM | Cn1oc(=O)nc1-c1ccc(NC(=O)[C@@H]2CCC3CC(c4c(-n5cnnn5)ccc(Cl)c4F)=CC(=O)N32)cc1 (mixture of isomers) [ID No. 67, (3S)-7-[3-Chloro-2-fluoro-6-(tetrazol-1-yl)phenyl]-N-[4-(2-methyl-5-oxo-1,2,4-oxadiazol-3-yl)phenyl]-5-oxo-2,3,8,8a-tetrahydro-1H-indolizine-3-carboxamide]
8 | 58.4 nM | Cn1ccnc1-c1ccc(NC(=O)[C@@H]2CCC3CC(c4c(-n5cnnn5)ccc(Cl)c4F)=CC(=O)N32)cc1 (mixture of isomers) [ID No. 78, (3S)-7-[3-Chloro-2-fluoro-6-(tetrazol-1-yl)phenyl]-N-[4-(1-methylimidazol-2-yl)phenyl]-5-oxo-2,3,8,8a-tetrahydro-1H-indolizine-3-carboxamide]
